From patent US20190000847A1, “THERAPEUTIC AGENT FOR A WOUND” (DAIICHI SANKYO COMPANY LIMITED, priority 2015, published 2019)
Where two headings read alike, the source gives them in different places.

Assays:
[1] = tested on: db/db mice; experiment: Test Example 2: wound healing experiment, full thickness skin wound; type: in vivo; details: male db/db mice; for area under the curve (AUC) of the percent wound area / number of days required for 50% reduction in the percent wound area / 75% healing rate (proportion of individuals that achieved 75% or more reduction in the percent wound area at day 14): full thickness skin wound; for area under the curve (AUC) of the percent wound area: 0.15 mM dropwise; for number of days required for 50% reduction in the percent wound area / 75% healing rate (proportion of individuals that achieved 75% or more reduction in the percent wound area at day 14): compound B 0.15 mM dropwise; for number of days required for 50% reduction in the percent wound area: bFGF sprayed five times (approx. 30 μg), negative control 11.0 days (FIG. 4B); for 75% healing rate (proportion of individuals that achieved 75% or more reduction in the percent wound area at day 14): bFGF spray, negative control 16.7% (FIG. 4C)
Experimental: A positive control bFGF (trafermin (genetic recombination) formulation, Fiblast(trademark) spray) approved as a therapeutic agent for pressure ulcer and skin ulcer was sprayed five times (approximately 30 μg was administered per 6 cm in diameter) to the wound site from approximately 5 cm apart according to the dose regimen. […] The test was conducted with 6 animals per group.

[2] = tested on: db/db mice; details: male db/db mice, 8 mm full thickness skin wound
Experimental: A full thickness skin wound was prepared on the backs of 9-week-old male db/db mice. The back of each mouse was shaved with an electric shaver under isoflurane anesthesia, and a full thickness skin wound of 8 mm in diameter was created on the back with a disposable biopsy punch. Compound A was administered dropwise (0.04 mL per wound site) at a concentration of 0.5 mM to the wound site once a day over 4 days from the wound creation date and protected with a dressing (Tegaderm Transparent Dressing). The negative control used was a test substance solubilizing solvent (10% Lutrol F127, 2% propylene glycol, 20 mM Tris buffer (pH 8.5)). 1, 4, 7, 9, 11, 15, and 18 days after the wound creation date, the wound site was photographed with a digital camera, and the wound area was calculated using image analysis software. When the wound area of the wound creation date was defined as 100%, the area at each day of photographing was calculated in terms of the percentage (%) of the area of the wound creation date. The test was conducted with 8 animals per group.

[3] = tested on: SD rats; details: male SD rats
Experimental: Pressure ulcer was created by pressure load on the right third trochanters of 8-week-old male SD rats. The skin on the right third trochanter of each rat was shaved with an electric shaver. A pressure of 902.3 to 911.2 g/cm^2 was loaded on the right third trochanter for 24 hours under anesthesia with pentobarbital and allobarbital. 2 days after cancellation of the pressure load, necrotic tissues were surgically removed under isoflurane anesthesia. When the necrotic tissue removal date was defined as day 1, compound A was administered dropwise (0.02 to 0.06 mL per wound site) at a concentration of 0.5 mM to the wound site once a day and protected with gauze and a waterproof film. The negative control used was a test substance solubilizing solvent (10% Lutrol F127, 2% propylene glycol, 20 mM Tris buffer (pH 8.5)). The major axis and minor axis of the wound surface were measured every day with a vernier caliper, and the wound area (major axis×minor axis) was calculated. When the wound area of day 1 was defined as 100%, the calculated area at each day was calculated in terms of the percentage (%) of the area of the wound creation date. The test was conducted with 10 animals per group.

Compound: Cc1nc(CC2CCN(c3ccc(-c4ccc(C[C@H](C)O)cc4)cc3)CC2)nc(C(=O)NCC(=O)O)c1O [Compound B, [({5-Hydroxy-2-[(1-{4′-[(2S)-2-hydroxypropyl]biphenyl-4-yl}piperidin-4-yl)methyl]-6-methylpyrimidin-4-yl}carbonyl)amino]acetic acid]
- time dependent change in the percent wound area ([1]; 8 mm full thickness skin wound, 0.15 mM dropwise 0.04 mL per wound site at days 1, 2, 4, 7, 10, 14, 17, 22, vs negative control (FIG. 3)): reduced the percent wound area at each point of evaluation, as compared with the negative control
- area under the curve (AUC) of the percent wound area ([1]; compared with negative control group (FIG. 4A)): low value as compared with AUC of the negative control group
- area under the curve (AUC) of the percent wound area ([1]; compared with positive control bFGF administration group (FIG. 4A)): low value as compared with the positive control bFGF administration group
- number of days required for 50% reduction in the percent wound area [1]: 9.2 days
- 75% healing rate (proportion of individuals that achieved 75% or more reduction in the percent wound area at day 14) [1]: 83.3%

Compound: Cc1nc(CC2CCN(c3ccc(-c4ccc(CO)cc4)cc3)CC2)nc(C(=O)NCC(=O)O)c1O [Compound A]
- time-dependent change in the percent wound area ([2]; 0.5 mM dropwise 0.04 mL per wound site once a day over 4 days, days 1-18, vs negative control (FIG. 1)): reduced the percent wound area at each point of evaluation, as compared with the negative control
- area under the curve (AUC) of the percent wound area ([2]; 0.5 mM dropwise once a day over 4 days, vs negative control (FIG. 2)): low value as compared with AUC of the negative control group
- time dependent change in the percent wound area ([3]; pressure ulcer on right third trochanter, 0.5 mM dropwise 0.02 to 0.06 mL per wound site once a day, vs negative control (FIG. 5)): reduced the percent wound area at each point of evaluation, as compared with the negative control
- number of days required for healing ([3]; pressure ulcer, 0.5 mM dropwise once a day, negative control 25.3 days (FIG. 6B)): 21.5 days
- area under the curve (AUC) of the percent wound area ([3]; pressure ulcer, 0.5 mM dropwise once a day, vs negative control (FIG. 6A)): low value as compared with AUC of the negative control group
- time dependent change in the healing rate (complete healing rate) ([3]; pressure ulcer, 0.5 mM dropwise once a day, vs negative control (FIG. 6C)): significant elevation in the healing rate as compared with the negative control group

Compound: bFGF: positive control bFGF (trafermin (genetic recombination) formulation, Fiblast spray) approved as a therapeutic agent for pressure ulcer and skin ulcer
- number of days required for 50% reduction in the percent wound area [1]: 10.2 days
- 75% healing rate (proportion of individuals that achieved 75% or more reduction in the percent wound area at day 14) [1]: 50.0%
